For orientation: pIC50 means the IC50 on a negative log10 scale, so that one unit is a factor of ten.

pIC50: −log10 of the molar value.

The target in this assay is EGFR (human) (UniProt P00533). The settings on record: a431.
Sequence of EGFR (human) (P00533 whole entry, looked up): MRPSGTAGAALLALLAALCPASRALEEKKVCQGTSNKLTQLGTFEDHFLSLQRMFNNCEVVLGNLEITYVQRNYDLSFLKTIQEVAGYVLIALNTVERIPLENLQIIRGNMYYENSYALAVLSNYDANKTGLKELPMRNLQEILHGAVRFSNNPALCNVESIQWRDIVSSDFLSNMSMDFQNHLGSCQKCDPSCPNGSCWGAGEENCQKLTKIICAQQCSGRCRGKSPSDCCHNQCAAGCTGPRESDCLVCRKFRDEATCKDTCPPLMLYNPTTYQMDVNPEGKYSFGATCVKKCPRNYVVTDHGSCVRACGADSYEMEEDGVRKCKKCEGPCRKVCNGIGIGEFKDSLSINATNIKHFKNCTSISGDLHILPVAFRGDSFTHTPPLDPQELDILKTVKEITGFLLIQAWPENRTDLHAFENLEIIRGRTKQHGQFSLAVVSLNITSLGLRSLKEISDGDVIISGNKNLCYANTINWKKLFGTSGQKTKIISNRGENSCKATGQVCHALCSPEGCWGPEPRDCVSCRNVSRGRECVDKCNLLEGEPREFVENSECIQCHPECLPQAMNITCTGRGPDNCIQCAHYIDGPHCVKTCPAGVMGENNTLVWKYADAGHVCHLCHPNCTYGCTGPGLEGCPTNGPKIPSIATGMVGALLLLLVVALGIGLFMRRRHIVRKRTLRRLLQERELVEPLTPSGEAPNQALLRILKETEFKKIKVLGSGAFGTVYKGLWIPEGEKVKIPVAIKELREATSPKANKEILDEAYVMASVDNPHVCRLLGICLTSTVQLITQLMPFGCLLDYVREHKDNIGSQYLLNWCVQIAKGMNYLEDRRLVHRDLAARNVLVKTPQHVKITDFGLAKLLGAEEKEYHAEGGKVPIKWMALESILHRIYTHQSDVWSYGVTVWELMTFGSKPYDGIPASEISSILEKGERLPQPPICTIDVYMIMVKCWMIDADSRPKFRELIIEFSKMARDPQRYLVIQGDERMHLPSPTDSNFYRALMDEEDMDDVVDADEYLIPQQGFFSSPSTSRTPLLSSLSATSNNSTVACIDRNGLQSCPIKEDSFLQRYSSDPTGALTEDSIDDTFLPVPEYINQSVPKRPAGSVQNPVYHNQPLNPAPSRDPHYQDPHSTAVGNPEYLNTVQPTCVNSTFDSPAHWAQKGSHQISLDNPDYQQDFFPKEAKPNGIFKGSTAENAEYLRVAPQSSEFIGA
`Cc1c(C=C2C(=O)Nc3ncc(Br)cc32)[nH]c2c1C(=O)N(CCN1CCOCC1)CC2`: the pIC50 is 4.80.
For `CCN(CC)CCN1CCc2[nH]c(C=C3C(=O)Nc4c(NC(C)=O)cc(F)cc43)c(C)c2C1=O` the value was 5.86.
For `CCN(CC)CCN1CCc2[nH]c(C=C3C(=O)Nc4c(NC=O)cc(F)cc43)c(C)c2C1=O` the value was 5.86; for `CCN(CC)CCN1CCc2[nH]c(C=C3C(=O)Nc4cccc(CCO)c43)c(C)c2C1=O`, 5.41.
The figure for `CCN(CC)CCN1CCc2[nH]c(C=C3C(=O)Nc4ccc(OC)cc43)c(C)c2C1=O` is 5.36; for `COCC(=O)Nc1cc2c(cc1F)C(=Cc1[nH]c3c(c1-c1ccc(F)cc1)C(=O)NCC3)C(=O)N2` it is 5.69.
`Cc1c(C=C2C(=O)Nc3cccc(Br)c32)[nH]c2c1C(=O)N(CCN1CCCC1)CC2` gave a negative logarithm of the IC50 (pIC50) of 6.70.
In the case of `CCN(CC)CCN1CCc2[nH]c(C=C3C(=O)Nc4ncnc(Nc5ccc(F)c(Cl)c5)c43)c(C)c2C1=O`, the negative-log IC50 (pIC50) is 7.17.
The figure for `Cc1c(C=C2C(=O)Nc3cc(NC(=O)CO)c(F)cc32)[nH]c2c1C(=O)N(CCN1CCCCC1)CC2` is 5.90.
The figure for `Cc1c(C=C2C(=O)Nc3cccc(-c4cccc(F)c4F)c32)[nH]c2c1C(=O)N(CCN1CCCC1)CC2` is 5.66; for `Cc1c(C=C2C(=O)Nc3ccc(Cl)cc32)[nH]c2c1C(=O)N(CCN1CCOCC1)CC2` it is 4.99.
For `CCN(CC)CCN1CCc2[nH]c(C=C3C(=O)Nc4cccc(-c5cccc(F)c5F)c43)c(C)c2C1=O` the value was 6.42; for `Cc1c(C=C2C(=O)Nc3cccc(CCO)c32)[nH]c2c1C(=O)N(CCN1CCCC1)CC2`, 5.77; for `Cc1c(C=C2C(=O)Nc3ncc(Br)cc32)[nH]c2c1C(=O)N(CCN1CCCCC1)CC2`, 5.78.
`CCN(CC)CCN1CCc2[nH]c(C=C3C(=O)Nc4cc(NC=O)c(F)cc43)c(C)c2C1=O`: the pIC50 was 6.43. Compared with the last compound, the pIC50 is 0.65 log units higher.
The figure for `CCN(CC)CCN1CCc2[nH]c(C=C3C(=O)Nc4cc(N)c(F)cc43)c(C)c2C1=O` is 4.98; for `CCN(CC)CCN1CCc2[nH]c(C=C3C(=O)Nc4ccc(Br)cc43)c(C)c2C1=O` it is 5.90.
For `Cc1c(C=C2C(=O)Nc3cccc(-c4cccc(F)c4)c32)[nH]c2c1C(=O)N(CCN1CCCCC1)CC2` the value was 6.74.
For `Cc1c(C=C2C(=O)Nc3cccc(C4CCNCC4)c32)[nH]c2c1C(=O)N(CCN1CCOCC1)CC2` the value was 5.72; for `Cc1c(C=C2C(=O)Nc3cccc(-c4cccc(Cl)c4F)c32)[nH]c2c1C(=O)N(CCN1CCCC1)CC2`, 4.86.
In turn, `CCN(CC)CCN1CCc2[nH]c(C=C3C(=O)Nc4cccc(Br)c43)c(C)c2C1=O` gave a pIC50 of 6.48.
The figure for `Cc1c(C=C2C(=O)Nc3cccc(-c4c(F)cccc4F)c32)[nH]c2c1C(=O)N(CCN1CCCCC1)CC2` is 6.28; for `Cc1c(C=C2C(=O)Nc3cc(NCc4ccc(F)cc4)c(F)cc32)[nH]c2c1C(=O)N(CCN1CCCCC1)CC2` it is 6.47.
For `CCN(CC)CCN1CCc2[nH]c(C=C3C(=O)Nc4cccc(C5CCNCC5)c43)c(C)c2C1=O` the value was 6.46.
For `Cc1c(C=C2C(=O)Nc3ccc(F)cc32)[nH]c2c1C(=O)N(CCN1CCCC1)CC2` the value was 5.88; for `Cc1c(C=C2C(=O)Nc3ccc(F)cc32)[nH]c2c1C(=O)N(CCN1CCOCC1)CC2`, 5.87; for `Cc1c(C=C2C(=O)Nc3cc(N)c(F)cc32)[nH]c2c1C(=O)N(CCN1CCCC1)CC2`, 4.97.
In the case of `Cc1c(C=C2C(=O)Nc3cccc(-c4cccc(Cl)c4F)c32)[nH]c2c1C(=O)N(CCN1CCOCC1)CC2`, the pIC50 is 5.21.
For `CCN(CC)CCN1CCc2[nH]c(C=C3C(=O)Nc4ccc(-c5ccc(OC)cc5)cc43)c(C)c2C1=O` the value was 5.41; for `Cc1c(C=C2C(=O)Nc3ccc(NC=O)cc32)[nH]c2c1C(=O)N(CCN1CCCCC1)CC2`, 6.92; for `CCN(CC)CCN1CCc2[nH]c(C=C3C(=O)Nc4ccc(Cl)cc43)c(C)c2C1=O`, 5.98.
The figure for `Cc1c(C=C2C(=O)Nc3cccc(C4CCNCC4)c32)[nH]c2c1C(=O)N(CCN1CCCC1)CC2` is 6.23; for `O=C(CO)Nc1cc2c(cc1F)C(=Cc1[nH]c3c(c1-c1ccc(F)cc1)C(=O)NCC3)C(=O)N2` it is 5.51; for `Cc1c(C=C2C(=O)Nc3ncnc(Nc4ccc(F)c(Cl)c4)c32)[nH]c2c1C(=O)N(CCN1CCOCC1)CC2` it is 6.48.
The figure for `CCN(CC)CCN1CCc2[nH]c(C=C3C(=O)Nc4cc(NC(C)=O)c(F)cc43)c(C)c2C1=O` is 5.03; for `CCN(CC)CCN1CCc2[nH]c(C=C3C(=O)Nc4cccc(-c5cccc(Cl)c5F)c43)c(C)c2C1=O` it is 5.14.
`CCN(CC)CCN1CCc2[nH]c(C=C3C(=O)Nc4c(N)cc(F)cc43)c(C)c2C1=O` showed a pIC50 of 4.90.
The figure for `CCN(CC)CCN1CCc2[nH]c(C=C3C(=O)Nc4cccc(-c5ccc(Cl)cc5F)c43)c(C)c2C1=O` is 5.49; for `CCN(CC)CCN1CCc2[nH]c(C=C3C(=O)Nc4ccc(NC=O)cc43)c(C)c2C1=O` it is 6.08.
`Cc1c(C=C2C(=O)Nc3ccc(NS(C)(=O)=O)cc32)[nH]c2c1C(=O)N(CCN1CCOCC1)CC2` had a negative-log IC50 (pIC50) of 5.55.
The figure for `CCN(CC)CCN1CCc2[nH]c(C=C3C(=O)Nc4ccc(F)cc43)c(C)c2C1=O` is 5.96; for `Cc1c(C=C2C(=O)Nc3c(Br)cc(F)cc32)[nH]c2c1C(=O)N(CCN1CCCCC1)CC2` it is 6.57.
The figure for `Cc1c(C=C2C(=O)Nc3cccc(CCO)c32)[nH]c2c1C(=O)N(CCN1CCOCC1)CC2` is 4.78.

The record behind these values is the Kinase Knowledgebase extract (Sharma et al. 2016).
